Results from BigSolDB 2.1.

Structure (SMILES): CC[C@H]1OC(=O)[C@H](C)[C@@H](O[C@H]2C[C@@](C)(OC)[C@@H](O)[C@H](C)O2)[C@H](C)[C@@H](O[C@@H]2O[C@H](C)C[C@H](N(C)C)[C@H]2O)[C@](C)(O)C[C@@H](C)C(=O)[C@H](C)[C@@H](O)[C@]1(C)O.N#CS.O.O
- solubility (mole fraction) (in ethanol, 288.15 K): 0.00426
- solubility (mole fraction) (in ethanol, 293.15 K): 0.00475
- solubility (mole fraction) (in ethanol, 298.15 K): 0.00525
- solubility (mole fraction) (in ethanol, 303.15 K): 0.00586
- solubility (mole fraction) (in ethanol, 308.15 K): 0.00679
- solubility (mole fraction) (in ethanol, 313.15 K): 0.00767
- solubility (mole fraction) (in ethanol, 318.15 K): 0.00856
- solubility (mole fraction) (in isopropanol, 288.15 K): 0.00104
- solubility (mole fraction) (in isopropanol, 293.15 K): 0.00121
- solubility (mole fraction) (in isopropanol, 298.15 K): 0.00136
- solubility (mole fraction) (in isopropanol, 303.15 K): 0.00157
- solubility (mole fraction) (in isopropanol, 308.15 K): 0.00175
- solubility (mole fraction) (in isopropanol, 313.15 K): 0.002
- solubility (mole fraction) (in isopropanol, 318.15 K): 0.00227
- solubility (mole fraction) (in methanol, 288.15 K): 0.0119
- solubility (mole fraction) (in methanol, 293.15 K): 0.0128
- solubility (mole fraction) (in methanol, 298.15 K): 0.0144
- solubility (mole fraction) (in methanol, 303.15 K): 0.0158
- solubility (mole fraction) (in methanol, 308.15 K): 0.0173
- solubility (mole fraction) (in methanol, 313.15 K): 0.0189
- solubility (mole fraction) (in methanol, 318.15 K): 0.0203
- solubility (mole fraction) (in n-propanol, 288.15 K): 0.00409
- solubility (mole fraction) (in n-propanol, 293.15 K): 0.00437
- solubility (mole fraction) (in n-propanol, 298.15 K): 0.00488
- solubility (mole fraction) (in n-propanol, 303.15 K): 0.00567
- solubility (mole fraction) (in n-propanol, 308.15 K): 0.00643
- solubility (mole fraction) (in n-propanol, 313.15 K): 0.00725
- solubility (mole fraction) (in n-propanol, 318.15 K): 0.00841
